What was measured:
Conditions in all cases: compound at 10 μM
Human κ-Opioid (KOP) = target: T1, Human κ-Opioid (KOP) (Homo sapiens, UniProt P41145); assay: Radioligand binding, human κ-opioid (KOP) membranes, filtration, [3H]-Diprenorphine
T1 construct: purchased Perkin Elmer Biosignal
Outline: (§1)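 Membranes from cloned human receptors were incubated with compound and radioligand for 1 hour at room temperature. Bound ligand was collected on 0.3% PEI-soaked filters, washed with cold 50 mM Tris-HCl pH 7.4, and counted by scintillation. Percent inhibition was computed against DMSO totals and reference-ligand nonspecific wells.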

Human melanocortin (MC5) = target: T2, Human melanocortin (MC5) (Homo sapiens, UniProt P33032); assay: Radioligand binding, human melanocortin MC5 membranes, FlashPlate, [125I]-NDP-αMSH
T2 construct: purchased Perkin Elmer Biosignal
T2 sequence (P33032 whole entry): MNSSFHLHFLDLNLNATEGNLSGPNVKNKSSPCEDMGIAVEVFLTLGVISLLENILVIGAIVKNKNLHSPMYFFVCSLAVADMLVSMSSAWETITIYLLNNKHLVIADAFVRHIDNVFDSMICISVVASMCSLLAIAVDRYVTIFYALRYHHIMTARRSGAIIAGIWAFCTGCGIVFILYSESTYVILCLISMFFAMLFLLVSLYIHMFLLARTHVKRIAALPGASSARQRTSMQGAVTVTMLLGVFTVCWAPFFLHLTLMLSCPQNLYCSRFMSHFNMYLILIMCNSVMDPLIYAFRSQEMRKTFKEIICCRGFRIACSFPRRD
Outline: (§2)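 Cloned human receptor membranes were coated onto FlashPlate wells and incubated with radioligand and compound (added from a 0.5 mM DMSO daughter plate) for 1 hour at room temperature in the dark. Scintillation counting gave percent inhibition, with DMSO defining total and reference ligand defining non-specific binding.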

Human Melanocortin (MC3) = target: T3, Human Melanocortin (MC3) (Homo sapiens, UniProt P41968); assay: Radioligand binding, human melanocortin MC3 membranes, FlashPlate, [125I]-NDP-αMSH
T3 construct: purchased Perkin Elmer Biosignal
T3 sequence (P41968 whole entry): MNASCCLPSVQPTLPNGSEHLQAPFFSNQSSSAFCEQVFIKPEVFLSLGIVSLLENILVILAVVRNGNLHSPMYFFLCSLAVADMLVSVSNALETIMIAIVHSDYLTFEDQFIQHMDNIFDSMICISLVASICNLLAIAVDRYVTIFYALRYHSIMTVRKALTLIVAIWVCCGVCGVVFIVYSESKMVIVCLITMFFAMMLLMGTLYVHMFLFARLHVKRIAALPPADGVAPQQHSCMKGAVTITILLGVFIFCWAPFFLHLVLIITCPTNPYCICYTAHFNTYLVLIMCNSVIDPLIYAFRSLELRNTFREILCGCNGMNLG
Outline: as §2

Human δ-opioid (DOP) = target: T4, Human δ-opioid (DOP) (Homo sapiens, UniProt P41143); assay: Radioligand binding, human δ-opioid (DOP) membranes, FlashPlate, [3H]-Bremazocine
T4 construct: purchased Perkin Elmer Biosignal
T4 sequence (P41143 whole entry): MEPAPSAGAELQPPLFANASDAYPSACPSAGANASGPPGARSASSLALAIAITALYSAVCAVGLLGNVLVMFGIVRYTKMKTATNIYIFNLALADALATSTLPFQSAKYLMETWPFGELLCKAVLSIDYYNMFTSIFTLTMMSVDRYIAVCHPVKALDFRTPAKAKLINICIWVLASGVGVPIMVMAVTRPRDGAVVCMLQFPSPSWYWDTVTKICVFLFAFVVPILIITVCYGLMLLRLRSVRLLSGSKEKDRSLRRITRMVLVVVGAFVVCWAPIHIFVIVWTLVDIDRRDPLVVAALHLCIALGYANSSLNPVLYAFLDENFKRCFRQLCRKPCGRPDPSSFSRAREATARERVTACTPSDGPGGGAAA
Outline: as §2

[1] = target: T5, Human melanin-concentrating hormone (MCH1) (Homo sapiens, UniProt Q99705); assay: Radioligand binding, human melanin-concentrating hormone MCH1 membranes, FlashPlate, [125I]-S36057
T5 construct: purchased Perkin Elmer Biosignal
T5 sequence (Q99705 whole entry): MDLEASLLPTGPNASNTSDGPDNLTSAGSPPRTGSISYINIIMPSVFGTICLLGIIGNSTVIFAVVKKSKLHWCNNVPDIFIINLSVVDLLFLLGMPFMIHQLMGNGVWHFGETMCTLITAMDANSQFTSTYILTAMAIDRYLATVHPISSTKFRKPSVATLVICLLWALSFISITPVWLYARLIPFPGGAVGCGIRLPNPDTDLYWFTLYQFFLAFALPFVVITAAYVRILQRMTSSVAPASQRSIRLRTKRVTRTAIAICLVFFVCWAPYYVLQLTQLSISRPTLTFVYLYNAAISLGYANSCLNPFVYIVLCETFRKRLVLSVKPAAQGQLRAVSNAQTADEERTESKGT
Outline: as §2

Human Melanocortin (MC4) = target: T6, Human Melanocortin (MC4) (Homo sapiens, UniProt P32245); assay: Radioligand binding, human melanocortin MC4 membranes, FlashPlate, [125I]-NDP-αMSH
T6 construct: purchased Perkin Elmer Biosignal
T6 sequence (P32245 whole entry): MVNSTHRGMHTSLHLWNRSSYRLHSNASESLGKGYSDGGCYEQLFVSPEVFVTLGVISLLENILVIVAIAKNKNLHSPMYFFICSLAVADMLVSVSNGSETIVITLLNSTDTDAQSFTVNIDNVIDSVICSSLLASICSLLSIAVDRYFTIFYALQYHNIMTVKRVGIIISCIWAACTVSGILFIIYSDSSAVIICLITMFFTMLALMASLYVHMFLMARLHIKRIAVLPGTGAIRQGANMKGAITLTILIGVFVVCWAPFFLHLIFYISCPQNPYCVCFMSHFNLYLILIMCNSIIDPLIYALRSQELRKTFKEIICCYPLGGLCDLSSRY
Outline: as §2

Mouse urotensin (mUR2) = target: T7, Mouse urotensin (mUR2) (Mus musculus, UniProt Q8VIH9); assay: Radioligand binding, mouse urotensin mUR2 membranes, FlashPlate, [125I]-Urotensin II
T7 construct: purchased Perkin Elmer Biosignal
T7 sequence (Q8VIH9 1-385): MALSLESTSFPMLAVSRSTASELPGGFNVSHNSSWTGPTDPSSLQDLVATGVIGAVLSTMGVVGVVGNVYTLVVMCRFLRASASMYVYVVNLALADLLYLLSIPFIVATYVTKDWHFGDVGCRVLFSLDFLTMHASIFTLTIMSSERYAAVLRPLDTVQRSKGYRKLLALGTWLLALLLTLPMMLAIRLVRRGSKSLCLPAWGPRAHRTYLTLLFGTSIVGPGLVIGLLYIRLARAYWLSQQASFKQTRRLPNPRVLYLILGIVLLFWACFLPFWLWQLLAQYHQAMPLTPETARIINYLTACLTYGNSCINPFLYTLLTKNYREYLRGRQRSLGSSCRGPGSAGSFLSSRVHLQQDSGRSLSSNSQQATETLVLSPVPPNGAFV
Outline: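 Cloned mouse urotensin (mUR2) receptor membranes from Perkin Elmer Biosignal were immobilized in FlashPlate microplates using a proprietary coating. Each well got 19.5 μl buffer, then 0.5 μl of DMSO, reference ligand, or compound. Adding 5 μl of [125I]-Urotensin II, diluted to 5× final concentration in binding buffer, started binding. Plates were sealed with TopSeal-A and incubated 1 hour at room temperature in the dark. Wells were counted for 30 seconds each on a TopCount after a 60-second delay, and percentage inhibition was calculated.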

Human opioid (ORL1) = target: T8, Human opioid (ORL1) (Homo sapiens, UniProt P41146); assay: Radioligand binding, human opioid ORL1 membranes, FlashPlate, [125I]-Nociceptin
T8 construct: purchased Perkin Elmer Biosignal
T8 sequence (P41146 whole entry): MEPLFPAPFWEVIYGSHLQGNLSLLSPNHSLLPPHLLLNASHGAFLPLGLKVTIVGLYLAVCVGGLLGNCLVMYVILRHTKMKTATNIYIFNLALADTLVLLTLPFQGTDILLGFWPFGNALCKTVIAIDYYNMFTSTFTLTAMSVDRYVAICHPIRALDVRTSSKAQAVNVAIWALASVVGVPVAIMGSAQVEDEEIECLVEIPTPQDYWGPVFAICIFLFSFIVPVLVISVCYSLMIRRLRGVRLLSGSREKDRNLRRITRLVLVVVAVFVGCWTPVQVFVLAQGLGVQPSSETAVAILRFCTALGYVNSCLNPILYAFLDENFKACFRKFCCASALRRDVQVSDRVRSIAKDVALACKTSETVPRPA
Outline: as §2

[2] = target: T9, Human neuropeptide Y (NPY-Y1) (Homo sapiens, UniProt P25929); assay: Radioligand binding, human neuropeptide Y NPY-Y1 membranes, FlashPlate, [125I]-PYY
T9 construct: purchased Perkin Elmer Biosignal
T9 sequence (P25929 1-384): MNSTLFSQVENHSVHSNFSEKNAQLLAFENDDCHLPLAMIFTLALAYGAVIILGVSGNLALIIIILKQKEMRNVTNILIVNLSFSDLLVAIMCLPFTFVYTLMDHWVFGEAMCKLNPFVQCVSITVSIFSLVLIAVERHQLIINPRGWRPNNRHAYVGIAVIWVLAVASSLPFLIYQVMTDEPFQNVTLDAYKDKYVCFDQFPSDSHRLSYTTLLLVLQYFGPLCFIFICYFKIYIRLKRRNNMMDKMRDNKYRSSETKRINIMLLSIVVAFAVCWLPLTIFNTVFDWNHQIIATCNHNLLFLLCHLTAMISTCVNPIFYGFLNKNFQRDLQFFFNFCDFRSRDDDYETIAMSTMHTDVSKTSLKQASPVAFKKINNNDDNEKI
Outline: as §2

Human μ-opioid (MOP) = target: T10, Human μ-opioid (MOP) (Homo sapiens, UniProt P35372); assay: Radioligand binding, human μ-opioid (MOP) membranes, FlashPlate, [3H]-Naloxone
T10 construct: purchased Perkin Elmer Biosignal
T10 sequence (P35372 whole entry): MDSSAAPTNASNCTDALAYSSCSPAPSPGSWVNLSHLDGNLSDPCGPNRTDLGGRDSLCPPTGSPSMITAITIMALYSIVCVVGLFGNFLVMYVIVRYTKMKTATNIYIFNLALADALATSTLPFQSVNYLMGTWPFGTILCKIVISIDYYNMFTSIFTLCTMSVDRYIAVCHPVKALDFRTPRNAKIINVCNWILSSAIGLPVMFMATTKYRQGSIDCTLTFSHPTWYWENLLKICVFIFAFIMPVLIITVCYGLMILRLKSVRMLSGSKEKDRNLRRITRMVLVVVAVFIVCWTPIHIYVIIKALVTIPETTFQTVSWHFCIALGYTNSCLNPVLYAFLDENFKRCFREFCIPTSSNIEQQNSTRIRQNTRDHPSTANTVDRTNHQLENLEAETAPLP
Outline: as §2

Human neurokinin (NK1) = target: T11, Human neurokinin (NK1) (Homo sapiens, UniProt P25103); assay: Radioligand binding, human neurokinin NK1 membranes, filtration, [125I]-Substance P
T11 construct: purchased Perkin Elmer Biosignal
T11 sequence (P25103 whole entry): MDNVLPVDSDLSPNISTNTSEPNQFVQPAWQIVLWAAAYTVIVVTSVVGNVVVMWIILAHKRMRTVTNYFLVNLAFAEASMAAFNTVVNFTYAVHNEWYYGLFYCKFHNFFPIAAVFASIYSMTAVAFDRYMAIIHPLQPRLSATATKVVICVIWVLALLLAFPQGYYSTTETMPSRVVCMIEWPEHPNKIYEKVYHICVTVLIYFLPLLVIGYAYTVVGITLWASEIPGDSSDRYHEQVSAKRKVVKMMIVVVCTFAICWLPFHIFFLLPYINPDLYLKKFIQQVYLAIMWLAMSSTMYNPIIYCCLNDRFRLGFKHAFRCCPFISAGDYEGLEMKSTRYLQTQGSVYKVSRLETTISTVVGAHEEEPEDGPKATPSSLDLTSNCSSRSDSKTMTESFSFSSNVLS
Outline: as §1

T1 sequence (P41145 whole entry): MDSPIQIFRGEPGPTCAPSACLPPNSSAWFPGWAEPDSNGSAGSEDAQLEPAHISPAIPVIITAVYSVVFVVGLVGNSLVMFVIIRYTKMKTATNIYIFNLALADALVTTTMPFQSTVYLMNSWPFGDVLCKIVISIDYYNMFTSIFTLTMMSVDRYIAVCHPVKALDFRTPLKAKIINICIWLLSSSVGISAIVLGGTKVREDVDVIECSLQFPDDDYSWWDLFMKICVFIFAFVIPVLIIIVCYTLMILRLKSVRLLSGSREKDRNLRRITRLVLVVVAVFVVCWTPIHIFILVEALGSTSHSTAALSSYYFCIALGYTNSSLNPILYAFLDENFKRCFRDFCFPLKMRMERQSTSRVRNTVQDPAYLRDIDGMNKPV

COC[C@H]1OC(OCCc2ccccc2)[C@H](NC(=O)CCCNC(=N)N)[C@@H](OCc2ccc(-c3ccccc3)cc2)[C@@H]1O (stereo partly shown) [compound 43]
A2 radioligand binding inhibition (Human κ-Opioid (KOP); human κ-opioid (KOP) membranes): + (“+” indicates greater than 50% inhibition at 10 μM)
A5 radioligand binding inhibition (Human melanocortin (MC5); human melanocortin MC5 membranes): + (“+” indicates greater than 50% inhibition at 10 μM)
A3 radioligand binding inhibition (Human Melanocortin (MC3); human melanocortin MC3 membranes): + (“+” indicates greater than 50% inhibition at 10 μM)
A1 radioligand binding inhibition (Human δ-opioid (DOP); human δ-opioid (DOP) membranes): − (“−” indicates less than 50% inhibition at 10 μM)
A6 radioligand binding inhibition ([1]; human MCH1 membranes): + (“+” indicates greater than 50% inhibition at 10 μM)
A4 radioligand binding inhibition (Human Melanocortin (MC4); human melanocortin MC4 membranes): + (“+” indicates greater than 50% inhibition at 10 μM)
A11 radioligand binding inhibition (Mouse urotensin (mUR2); mouse urotensin mUR2 membranes): − (“−” indicates less than 50% inhibition at 10 μM)
A10 radioligand binding inhibition (Human opioid (ORL1); human ORL1 membranes): − (“−” indicates less than 50% inhibition at 10 μM)
A9 radioligand binding inhibition ([2]; human NPY-Y1 membranes): − (“−” indicates less than 50% inhibition at 10 μM)
A7 radioligand binding inhibition (Human μ-opioid (MOP); human μ-opioid (MOP) membranes): + (“+” indicates greater than 50% inhibition at 10 μM)
A8 radioligand binding inhibition (Human neurokinin (NK1); human neurokinin NK1 membranes): + (“+” indicates greater than 50% inhibition at 10 μM)

CSC1O[C@H](COCc2ccc3ccccc3c2)[C@@H](O)[C@@H](OCc2ccc(Cl)cc2)[C@H]1NC(=O)CN (stereo partly shown) [compound 280]
A2: inhibition of radioligand binding (Human κ-Opioid (KOP); [3H]-Diprenorphine, filtration): − (“−” indicates less than 50% inhibition at 10 μM)
A5: inhibition of radioligand binding (Human melanocortin (MC5); [125I]-NDP-αMSH, FlashPlate): − (“−” indicates less than 50% inhibition at 10 μM)
A3: inhibition of radioligand binding (Human Melanocortin (MC3); [125I]-NDP-αMSH, FlashPlate): − (“−” indicates less than 50% inhibition at 10 μM)
A1: inhibition of radioligand binding (Human δ-opioid (DOP); [3H]-Bremazocine, FlashPlate): − (“−” indicates less than 50% inhibition at 10 μM)
A6: inhibition of radioligand binding ([1]; [125I]-S36057, FlashPlate): − (“−” indicates less than 50% inhibition at 10 μM)
A4: inhibition of radioligand binding (Human Melanocortin (MC4); [125I]-NDP-αMSH, FlashPlate): − (“−” indicates less than 50% inhibition at 10 μM)
A11: inhibition of radioligand binding (Mouse urotensin (mUR2); [125I]-Urotensin II, FlashPlate): − (“−” indicates less than 50% inhibition at 10 μM)
A10: inhibition of radioligand binding (Human opioid (ORL1); [125I]-Nociceptin, FlashPlate): − (“−” indicates less than 50% inhibition at 10 μM)
A9: inhibition of radioligand binding ([2]; [125I]-PYY, FlashPlate): − (“−” indicates less than 50% inhibition at 10 μM)
A7: inhibition of radioligand binding (Human μ-opioid (MOP); [3H]-Naloxone, FlashPlate): − (“−” indicates less than 50% inhibition at 10 μM)
A8: inhibition of radioligand binding (Human neurokinin (NK1); [125I]-Substance P, filtration): + (“+” indicates greater than 50% inhibition at 10 μM)

COCC1OC(OCc2ccccc2)C(NC(=O)CN)C(OCc2ccc(Cl)cc2)C1O (stereo not shown) [compound 176]
A2 radioligand binding, percentage inhibition (Human κ-Opioid (KOP); [3H]-Diprenorphine): − (“−” indicates less than 50% inhibition at 10 μM)
A5 radioligand binding, percentage inhibition (Human melanocortin (MC5); [125I]-NDP-αMSH): − (“−” indicates less than 50% inhibition at 10 μM)
A3 radioligand binding, percentage inhibition (Human Melanocortin (MC3); [125I]-NDP-αMSH): − (“−” indicates less than 50% inhibition at 10 μM)
A1 radioligand binding, percentage inhibition (Human δ-opioid (DOP); [3H]-Bremazocine): − (“−” indicates less than 50% inhibition at 10 μM)
A6 radioligand binding, percentage inhibition ([1]; [125I]-S36057): − (“−” indicates less than 50% inhibition at 10 μM)
A4 radioligand binding, percentage inhibition (Human Melanocortin (MC4); [125I]-NDP-αMSH): − (“−” indicates less than 50% inhibition at 10 μM)
A11 radioligand binding, percentage inhibition (Mouse urotensin (mUR2); [125I]-Urotensin II): − (“−” indicates less than 50% inhibition at 10 μM)
A10 radioligand binding, percentage inhibition (Human opioid (ORL1); [125I]-Nociceptin): − (“−” indicates less than 50% inhibition at 10 μM)
A9 radioligand binding, percentage inhibition ([2]; [125I]-PYY): − (“−” indicates less than 50% inhibition at 10 μM)
A7 radioligand binding, percentage inhibition (Human μ-opioid (MOP); [3H]-Naloxone): − (“−” indicates less than 50% inhibition at 10 μM)
A8 radioligand binding, percentage inhibition (Human neurokinin (NK1); [125I]-Substance P): + (“+” indicates greater than 50% inhibition at 10 μM)

NCCC(=O)NC1C(OCc2ccc(Cl)cc2)OC(COCc2ccccc2)C(O)C1OCc1ccccc1 (single isomer, unassigned) [compound 486]
A2: inhibition of radioligand binding, human κ-opioid (KOP) (Human κ-Opioid (KOP); [3H]-Diprenorphine): − (“−” indicates less than 50% inhibition at 10 μM)
A5: inhibition of radioligand binding, human melanocortin (MC5) (Human melanocortin (MC5); [125I]-NDP-αMSH): − (“−” indicates less than 50% inhibition at 10 μM)
A3: inhibition of radioligand binding, human melanocortin (MC3) (Human Melanocortin (MC3); [125I]-NDP-αMSH): − (“−” indicates less than 50% inhibition at 10 μM)
A1: inhibition of radioligand binding, human δ-opioid (DOP) (Human δ-opioid (DOP); [3H]-Bremazocine): − (“−” indicates less than 50% inhibition at 10 μM)
A6: inhibition of radioligand binding, human melanin-concentrating hormone (MCH1) ([1]; [125I]-S36057): − (“−” indicates less than 50% inhibition at 10 μM)
A4: inhibition of radioligand binding, human melanocortin (MC4) (Human Melanocortin (MC4); [125I]-NDP-αMSH): − (“−” indicates less than 50% inhibition at 10 μM)
A11: inhibition of radioligand binding, mouse urotensin (mUR2) (Mouse urotensin (mUR2); [125I]-Urotensin II): − (“−” indicates less than 50% inhibition at 10 μM)
A10: inhibition of radioligand binding, human opioid (ORL1) (Human opioid (ORL1); [125I]-Nociceptin): − (“−” indicates less than 50% inhibition at 10 μM)
A9: inhibition of radioligand binding, human neuropeptide Y (NPY-Y1) ([2]; [125I]-PYY): − (“−” indicates less than 50% inhibition at 10 μM)
A7: inhibition of radioligand binding, human μ-opioid (MOP) (Human μ-opioid (MOP); [3H]-Naloxone): − (“−” indicates less than 50% inhibition at 10 μM)
A8: inhibition of radioligand binding, human neurokinin (NK1) (Human neurokinin (NK1); [125I]-Substance P): + (“+” indicates greater than 50% inhibition at 10 μM)

CSC1OC(COCc2ccc3ccccc3c2)C(O)C(OCc2ccc3ccccc3c2)C1NC(=O)CCNC(=N)N (stereo not shown) [compound 319]
A2: inhibition of radioligand binding, human κ-opioid (KOP) (Human κ-Opioid (KOP); [3H]-Diprenorphine): − (“−” indicates less than 50% inhibition at 10 μM)
A5: inhibition of radioligand binding, human melanocortin (MC5) (Human melanocortin (MC5); [125I]-NDP-αMSH): + (“+” indicates greater than 50% inhibition at 10 μM)
A3: inhibition of radioligand binding, human melanocortin (MC3) (Human Melanocortin (MC3); [125I]-NDP-αMSH): − (“−” indicates less than 50% inhibition at 10 μM)
A1: inhibition of radioligand binding, human δ-opioid (DOP) (Human δ-opioid (DOP); [3H]-Bremazocine): − (“−” indicates less than 50% inhibition at 10 μM)
A6: inhibition of radioligand binding, human melanin-concentrating hormone (MCH1) ([1]; [125I]-S36057): − (“−” indicates less than 50% inhibition at 10 μM)
A4: inhibition of radioligand binding, human melanocortin (MC4) (Human Melanocortin (MC4); [125I]-NDP-αMSH): + (“+” indicates greater than 50% inhibition at 10 μM)
A11: inhibition of radioligand binding, mouse urotensin (mUR2) (Mouse urotensin (mUR2); [125I]-Urotensin II): − (“−” indicates less than 50% inhibition at 10 μM)
A10: inhibition of radioligand binding, human opioid (ORL1) (Human opioid (ORL1); [125I]-Nociceptin): − (“−” indicates less than 50% inhibition at 10 μM)
A9: inhibition of radioligand binding, human neuropeptide Y (NPY-Y1) ([2]; [125I]-PYY): − (“−” indicates less than 50% inhibition at 10 μM)
A7: inhibition of radioligand binding, human μ-opioid (MOP) (Human μ-opioid (MOP); [3H]-Naloxone): − (“−” indicates less than 50% inhibition at 10 μM)
A8: inhibition of radioligand binding, human neurokinin (NK1) (Human neurokinin (NK1); [125I]-Substance P): + (“+” indicates greater than 50% inhibition at 10 μM)
